Like-named read-outs stand apart in the source and are kept apart here.
System: IL-1β cytokine output from THP-1s
Assay: THP-1 AlphaLISA IL-1β cytokine assay
Format: cell-based, human
Protocol: Measuring Inhibitory Effects on IL-1β and IL-6 Cytokine Output from THP-1s
The cytokine inhibition profiles of compounds of formula (IW-1) were determined in a differentiated THP-1 cell assay. All assays were performed in RPMI-1640 growth medium (Gibco), supplemented with 10% fetal bovine serum (FBS; Gibco), 1% penicillin-streptomycin and 1% sodium pyruvate unless specified otherwise. The IL-1β and IL-6 cytokine inhibition assays were each run in a background of differentiated THP-1 cells as described below. All reagents described were from Sigma-Aldrich unless specified otherwise. Compounds were prepared as 10 mM DMSO stocks.
THP-1 cells were expanded as a suspension up to 80% confluence in appropriate growth medium. Cells were harvested, suspended, and treated with an appropriate concentration of phorbol 12-myristate 13-acetate (PMA) over a 72 hr period (37° C./5% CO2).
Following 72 hrs of THP-1 cell incubation, cellular medium was removed and replaced with fresh growth media containing 1% of FBS. Working concentrations of compounds were prepared separately in 10% FBS treated growth medium and pre-incubated with the cells for 30 minutes (37° C./5% CO2). Following the 30 minute compound pre-incubation, THP-1s were treated with an appropriate concentration of LPS and the THP-1s were subsequently incubated for a 24 hr period (37° C./5% CO2). An appropriate final concentration of Nigericin was then dispensed into the THP-1 plates and incubated for 1 hour (37° C./5% CO2) before THP-1 supernatants were harvested and collected in separate polypropylene 96-well holding plates.
Reagents from each of the IL-1β and IL-6 commercial kits (Perkin Elmer) were prepared and run according to the manufacturer's instructions. Subsequently, fluorescence signal detection in a microplate reader was measured (EnVision® Multilabel Reader, Perkin Elmer).
Percentage inhibition was calculated per cytokine by normalising the sample data to the high and low controls used within each plate (+/−LPS respectively). Percentage inhibition was then plotted against compound concentration and the 50% inhibitory concentration (IC50) was determined from the resultant concentration-response curve.

[1] = Homo sapiens, THP-1, PMA-differentiated THP-1 cells, LPS 24 hr then Nigericin 1 hour, read-out: IL-1β (IC50)
[2] = PMA-differentiated THP-1 cells, LPS 24 hr then Nigericin 1 hour, read-out: IL-1β (IC50)
[3] = Homo sapiens, PMA-differentiated THP-1 cells, LPS 24 hr then Nigericin 1 hour, read-out: IL-1β (IC50)
[4] = Homo sapiens, THP-1, read-out: IL-1β (IC50)

IC50 [1]	Structure (SMILES)	also measured
16.1 µM	C=C(CC(=O)OCCCCCCCC)C(=O)OC1CCOCC1 [Example 26, 4-octyl 1-(tetrahydro-2H-pyran-4-yl) 2-methylenesuccinate]	–
44.9 µM	C=C(CC(=O)OC1CCCCC1)C(=O)O[C@@H](C(=O)O)c1ccccc1 [Example 127, (R)-2-((4-(cyclohexyloxy)-2-methylene-4-oxobutanoyl)oxy)-2-phenylacetic acid]	–
4.1 µM	C=C(CC(=O)OCCCCCC)C(=O)OC1CCN(S(C)(=O)=O)CC1 [Example 76, 4-hexyl 1-(1-(methylsulfonyl)piperidin-4-yl) 2-methylenesuccinate]	–
8.2 µM	C=C(CC(=O)OC(C1CCCCC1)C(F)(F)F)C(=O)OCC(=O)O (centres unmarked) [Example 180, 2-((4-(1-cyclohexyl-2,2,2-trifluoroethoxy)-2-methylene-4-oxobutanoyl)oxy)acetic acid]	–
27.6 µM	C=C(CC(=O)O[C@H](C)CCCCC)C(=O)OCC(=O)O [Example 173, (R)-2-((4-(heptan-2-yloxy)-2-methylene-4-oxobutanoyl)oxy)acetic acid]	–
49.3 µM	C=C(C(=O)OCC(=O)O)C(C)C(=O)OC1CCCCCCC1 (centres unmarked) [Example 168, 2-((4-(cyclooctyloxy)-3-methyl-2-methylene-4-oxobutanoyl)oxy)acetic acid]	–
–	C=C(CC(=O)OC1CC2CCC1(C)C2(C)C)C(=O)OCC(=O)O (stereo not drawn) [Example 196, 2-((2-methylene-4-oxo-4-(((exo)-1,7,7-trimethylbicyclo[2.2.1]heptan-2-yl)oxy)butanoyl)oxy)acetic acid]	IC50 [2]: 18.8 µM
4.4 µM	C=C(CC(=O)OC1CCCCCCC1)C(=O)OCC(C)(C)S(=O)(=O)c1cccc(Cl)c1 [Example 131, 1-(2-((3-chlorophenyl)sulfonyl)-2-methylpropyl) 4-cyclooctyl 2-methylenesuccinate]	–
11.5 µM	C=C(CC(=O)O[C@H](C)c1ccc(C(F)(F)F)cc1)C(=O)OCC(=O)O [Example 200, (R)-2-((2-methylene-4-oxo-4-(1-(4-(trifluoromethyl)phenyl)ethoxy)butanoyl)oxy) acetic acid]	–
–	C=C(C(=O)OCC(=O)O)C(OC)C(=O)OC1CCCCCCC1 (centres unmarked) [Example 171, 2-((4-(cyclooctyloxy)-3-methoxy-2-methylene-4-oxobutanoyl)oxy)acetic Acid]	IC50 [3]: 21.8 µM
13.4 µM	C=C(CC(=O)OC(CCC)CCCC)C(=O)OCC(=O)O (centres unmarked) [Example 147, 2-(2-methylene-4-(octan-4-yloxy)-4-oxobutanoyloxy)acetic acid]	–
8.5 µM	C=C(CC(=O)OC(CC)CCCCC)C(=O)OCC(=O)O (centres unmarked) [Example 146, 2-(2-methylene-4-(octan-3-yloxy)-4-oxobutanoyloxy)acetic acid]	–
16.5 µM	C=C(CC(=O)OC1CCCCC1(C)C)C(=O)OCC(=O)O (centres unmarked) [Example 155, 2-((4-((2,2-dimethylcyclohexyl)oxy)-2-methylene-4-oxobutanoyl)oxy)acetic acid]	–
10.3 µM	C=C(CC(=O)OC1CC2(CCCC2)C1)C(=O)OCC(=O)O [Example 152, 2-(2-methylene-4-oxo-4-(spiro[3.4]octan-2-yloxy)butanoyloxy)acetic acid]	–
6.5 µM	C=C(CC(=O)O[C@@H](C)CCCCCC)C(=O)OC(C)Cc1nnn[nH]1 (stereo partly drawn) [Example 141, 1-(1-(1H-tetrazol-5-yl)propan-2-yl) 4-((S)-octan-2-yl) 2-methylenesuccinate]	–
27.9 µM	C=C(CC(=O)O[C@@H](C)CCCCCC)C(=O)OCC(=O)N(C)CC(=O)O [Example 105, (S)-N-methyl-N-(2-((2-methylene-4-(octan-2-yloxy)-4-oxobutanoyl)oxy)acetyl)glycine]	–
–	C=C(CC(=O)OCC(=O)O)C(=O)OCCS(=O)(=O)c1cccc(Cl)c1 [Example 126, 2-((3-((2-((3-chlorophenyl)sulfonyl)ethoxy)carbonyl)but-3-enoyl)oxy)acetic acid]	IC50 [4]: 0.7 µM
19.1 µM	C=C(CC(=O)OC1(CCCCC)CC1)C(=O)OCC(=O)O [Example 206, 2-((2-methylene-4-oxo-4-(1-pentylcyclopropoxy)butanoyl)oxy)acetic acid]	–

IC50 [1]	Structure (SMILES)	also measured
1.7 µM	C=C(CC(=O)O[C@H](C)CCCCCC)C(=O)O[C@@H](CC(=O)O)C(F)(F)F [Example 205, (S)-4,4,4-trifluoro-3-((2-methylene-4-(((R)-octan-2-yl)oxy)-4-oxobutanoyl)oxy)butanoic acid]	–
12.1 µM	C=C(CC(=O)OC1C2CC3CC(C2)CC1C3)C(=O)OCC(=O)O (centres unmarked) [Example 149, 2-((4-((adamantan-2-yl)oxy)-2-methylene-4-oxobutanoyl)oxy)acetic acid]	–
4.3 µM	C=C(CC(=O)OC1CCCCCCC1)C(=O)OCC(C)(C)S(C)(=O)=O [Example 132, 4-cyclooctyl 1-(2-methyl-2-(methylsulfonyl)propyl) 2-methylenesuccinate]	–
–	C=C(CC(=O)OC1(C2CCCCC2)CC1)C(=O)OCC(=O)O [Example 202, 2-((4-(1-cyclohexylcyclopropoxy)-2-methylene-4-oxobutanoyl)oxy)acetic acid]	IC50 [3]: 36.7 µM
–	C=C(CC(=O)OC(C)c1cc(Cl)cc(Cl)c1)C(=O)OCC(=O)O (single isomer, unassigned; isomer 2) [Example 199, 2-((4-(1-(3,5-dichlorophenyl)ethoxy)-2-methylene-4-oxobutanoyl)oxy)acetic acid (Isomer 2)]	IC50 [2]: 18.3 µM
22 µM	C=C(CC(=O)OC(C)c1cc(Cl)cc(Cl)c1)C(=O)OCC(=O)O (single isomer, unassigned; isomer 1) [Example 198, 2-((4-(1-(3,5-dichlorophenyl)ethoxy)-2-methylene-4-oxobutanoyl)oxy)acetic acid (Isomer 1)]	–
4.2 µM	C=C(CC(=O)OC1CCCCC1)C(=O)OC1CN(C(C)=O)C1 [Example 74, 1-(1-acetylazetidin-3-yl) 4-cyclohexyl 2-methylenesuccinate]	–
54.2 µM	C=C(CC(=O)OC1CCCCC1)C(=O)OC(C(=O)O)C(F)(F)F (centres unmarked) [Example 121, 2-((4-(cyclohexyloxy)-2-methylene-4-oxobutanoyl)oxy)-3,3,3-trifluoropropanoic acid]	–
20.5 µM	C=C(CC(=O)OC(C)Cc1cc(Cl)cc(Cl)c1)C(=O)OCC(=O)O (centres unmarked) [Example 177, 2-((4-((1-(3,5-dichlorophenyl)propan-2-yl)oxy)-2-methylene-4-oxobutanoyl)oxy)acetic acid]	–
–	C=C(CC(=O)OC(C(C)(C)C)C(C)(C)C)C(=O)OCC(=O)O [Example 204, 2-((2-methylene-4-oxo-4-((2,2,4,4-tetramethylpentan-3-yl)oxy)butanoyl)oxy)acetic Acid]	IC50 [3]: 41.7 µM
67.4 µM	C=C(CC(=O)O[C@@H](C)CCCCCC)C(=O)OC(c1nn[nH]n1)C1CC1 (stereo partly drawn) [Example 166, 1-(cyclopropyl(1H-tetrazol-5-yl)methyl) 4-((S)-octan-2-yl) 2-methylenesuccinate]	–
–	C=C(CC(=O)OC1CCCCC1)C(=O)OC/C=C/C(=O)O [Example 123, (E)-4-((4-(cyclohexyloxy)-2-methylene-4-oxobutanoyl)oxy)but-2-enoic acid]	IC50 [4]: 19.5 µM
–	C=C(CC(=O)OC1CCCCC1)C(=O)OC1CCCCC1 [Example 167, dicyclohexyl 2-methylenesuccinate]	IC50 [3]: 29.1 µM
14.4 µM	C=C(CC(=O)OC1CCCCCCC1)C(=O)OCC(=O)N1CCC[C@H]1C(=O)O [Example 104, (2-((4-(cyclooctyloxy)-2-methylene-4-oxobutanoyl)oxy)acetyl)-L-proline]	–
55.5 µM	C=C(CC(=O)OC1CCCCCCC1)C(=O)OCC(=O)N(C)CC(=O)O [Example 103, N-(2-((4-(cyclooctyloxy)-2-methylene-4-oxobutanoyl)oxy)acetyl)-N-methylglycine]	–
6.2 µM	C=C(CC(=O)OC1CCCCC1)C(=O)OCc1nnn(C)n1 [Example 142, 4-cyclohexyl 1-((2-methyl-2H-tetrazol-5-yl)methyl) 2-methylenesuccinate]	–
11.7 µM	C=C(CC(=O)OC(C)C1CCCCC1)C(=O)OCC(=O)O (centres unmarked) [Example 150, 2-((4-(1-cyclohexylethoxy)-2-methylene-4-oxobutanoyl)oxy)acetic acid]	–
33.9 µM	C=C(CC(=O)O[C@H](C)C1CCCCC1)C(=O)OCC(=O)O [Example 184, (R)-2-((4-(1-cyclohexylethoxy)-2-methylene-4-oxobutanoyl)oxy)acetic acid]	–

Structure (SMILES)	IC50 [1]	also measured
C=C(CC(=O)OC1(CCCCC)CCC1)C(=O)OCC(=O)O [Example 194, 2-((2-methylene-4-oxo-4-(1-pentylcyclobutoxy)butanoyl)oxy)acetic acid]	24.8 µM	–
C=C(CC(=O)OC1C(C)(C)CC1(C)C)C(=O)OCCC(=O)O [Example 207, 3-((2-methylene-4-oxo-4-(2,2,4,4-tetramethylcyclobutoxy)butanoyl)oxy) propanoic Acid]	100 µM	–

From patent US12390437B2, “Itaconic acid derivatives and uses thereof intreating an inflammatory disease or a disease associated with an undesirable immune response” (Sitryx Therapeutics Limited, priority 2019, dated 2025)
